Measurements: patent US6423752B1, “Indane dimer compounds with smooth muscle relaxing and/or mast cell stabilizing and/or anti-inflammatory activity” (Venantius Limited, priority 1995, dated 2002)
Where two headings read alike, the source gives them in different places.

Tests used:
ileum = experiment: Smooth muscle effects: CaCl2 induced contractions of ileum; design: species or system Guinea pigs; conditions: for inhibition at 3 µM / inhibition at 10 µM / inhibition at 0.3 µM / inhibition at 0.03 µM / inhibition at 1 µM / inhibition at 0.1 µM: Cavia porcellus, read-out: Percentage Inhibition of CaCl2 Induced Contractions
Method: (§1) The compounds were assessed for their ability to stabilize mast cell membranes in vitro. Mast cells treated with the compounds and un-treated mast cells were stimulated to release histamine. A reduction in histamine release by the treated cells compared to the untreated cells indicates stabilisation of the membrane. The compounds were assessed for their ability to relax smooth muscle in vitro. Intestinal smooth muscle was stimulated to contract, using calcium chloride and subsequently treated with the compounds, relaxation of the contraction was measured for each compound. The effects of the compounds were also studied on relaxation of guinea-pig tracheal muscle. In the rat paw oedema test, the drugs were administered systemically prior to inducing inflammation by the injection of carageenan below the plantar aponeurosis of the hind paw. The volume of the paw was determined both before and after treatment as an index of oedema. In the mouse ear oedema test, the drugs were administered topically prior to inducing inflammation by the topical application of arachidonic acid. The width of the ear was determined both before and after treatment as an index of oedema.
(§2) Guinea pigs (350 g approx.), of either sex, were killed in an atmosphere of saturated CO2. The abdomen was opened by a mid-line incision and the small intestine was removed. The trachea was removed and sectioned between the cartilage rings, which were then split through.
(§3) Segments of ileum (1-1.5 cm) were suspended in a high potassium, no calcium Krebs buffer (NaCl 160.44 mM); KCl 45 mM; MgCl2 0.54 mM; NaH2PO4 0.89 mM; NaH2CO3 24.9 mM; Glucose 11.1 mM). Tracheal sections were suspended in normal Krebs buffer (NaCl […]; KCl 4.7 mM; CaCl2 2.5 mM; MgCl2 0.54 mM; NaH2PO4 0.89 mM; NaHCO3 24.9 mM; Glucose 11.1 mM). The solutions were maintained at 37° C. by a jacketed organ bath and gassed with 95% O2 and 5% CO2. The tissues were anchored by thread to the bottom of the organ bath and suspended from force displacement transducers under a resting tension of 1 g approx. in the case of ileum and 4 g approx. in the case of trachea. Isotonic contractions were recorded using a MacLab/4e system in conjunction with the Chart 3.3.1 software package. Surplus tissue was stored at 4° C. in Krebs buffer, for a maximum of 48 hours.
(§4) Four segments of tissue were suspended and observed concurrently. Contractions were initiated by the addition of 25 μl of 1M CaCl2 (a final concentration of 2.5 mM). The contractions stabilized with time, 10-15 min, and could be maintained for up to 45 min. from the addition of the CaCl2. The tracheal sections were allowed to develop spontaneous resting tension over a period of 30 mins.
Stock solutions of drug were prepared at 10^−3M in 50% (v/v) DMSO. These were diluted to give; 10^−4M in 5% (v/v) DMSO and 10^−5M in 0.5% (v/v) DMSO. In cases of poor solubility the 10^−3M stock was made up in higher concentrations of DMSO. Solvent ‘blank’ solutions were prepared containing 50%, 5% and 0.5% (v/v) DMSO (or as appropriate). […] A second cumulative dose-response assay was carried out using DMSO ‘blank’ solutions only.
(§5) Each drug was tested, in duplicate, on at least three different animals (n=3). The results were expressed as percentage inhibition of the CaCl2 induced contraction in the case of ideal tissue and percentage relaxation in the case of tracheal tissue, for each tissue, at each concentration of drug in DMSO. The effect of DMSO, for each tissue at each concentration, was subtracted from the effect of the drug in DMSO, to give the effect of the drug alone. A log dose vs. response curve was plotted for each drug using the mean and the standard error of the mean for the cumulated results.

mast cells = experiment: Histamine release assay (compound 48/80 stimulated mast cells); format: cell-based, Wistar rats; conditions: 2 × 10^−5 M, rat peritoneal mast cells; for inhibition at 20 µM: Rattus norvegicus, Mast cell, read-out: Percentage Inhibition of Histamine Release
Method: as §1
The buffered salt solution (BSS) was prepared in advance (NaCl 137 mM; KCl 2.7 mM; MgCl2 1.0 mM; CaCl2 0.5 mM, NaH2PO4 0.4 mM; Glucose 5.6 mM; HEPES 10 mM). This was dispensed into test tubes and heated to 37° C., each test tube contained 4.5 ml BSS. The solvent blank was supplemented with 0.5% (v/v) dimethyl sulphoxide (DMSO) or 0.5% (v/v) distilled water (dH2O). The two positive controls were supplemented with 0.5% (v/v) dH2O/2×10^−5M disodium cromoglycate (DSCG) and 0.5% (v/v) DMSO/2×10^−5M DSCG. The test compounds' incubation tubes contained 2×10^−5M test compound/0.5% (v/v) DMSO. The basal release, maximum release and total histamine content incubation tubes contained no additions.
Female Wistar rats (200-300 g) were killed in an atmosphere of saturated CO2. Pre-warmed BSS (10 ml) was injected i.p. and the abdomen was massaged for 3 min. The BSS, with suspended mast cells and other cells, was aspirated following a mid-line incision. The aspirate was centrifuged for 5 min at 400 g and the supernatant removed. The cells were re-suspended in BSS, at 4° C., and centrifuged as before the cells were washed in this manner a total of three times. Following the final wash, the pelleted cells were stored at 4° C., for use as soon as possible.
The cells were re-suspended in 7 ml BSS. From this, 0.5 ml aliquots were transferred to each of the incubation tubes. After 10 min at 37° C. with gentle agitation, Compound 48/80 was added to a final concentration of […], in order to stimulate histamine release. The cell stimulation was stopped after 2 min by the addition of 0.5 ml ice cold BSS, the incubation tubes were transferred to an ice bath. The cell suspensions were centrifuged for 5 min at 400 g. The “total histamine content” tube was placed at 100° C. for 2 min prior to centrifugation. The supernatants were retained for histamine assay.
To 2 ml of supernatant from each tube was added 0.4 ml of 1M NaOH and 0.1 ml oPT (1% (w/v) in methanol). This was incubated at room temperature for 4 min. The reaction was stopped by the addition of 0.2 ml of 3M HCl. The supernatant from each incubation tube was assayed in duplicate and run simultaneously with a standard curve in the range 0-1000 ng/ml. The presence of the fluorescent product of the reaction was measured using a Shimazu RF-1501 spectrofluorophotometer set at λex=360 nm, λem=450 nm.
Each drug was tested on at least five animals (n=5). The results were expressed as a percentage of maximum, compound 48/80 induced, histamine release in the solvent blank sample. Each drug was compared to DSCG on the same tissues. The basal histamine release in untreated cells was noted, expressed as a percentage of the total histamine content of the cells in suspension. […]

trachea = experiment: Smooth muscle effects: spontaneous tone of tracheal sections; design: species or system Guinea pigs; conditions: guinea pig trachea, percentage relaxation; for inhibition at 3 µM / inhibition at 10 µM: Cavia porcellus
Method: as §1, §2, §3, §4
Stock solutions of drug were prepared at 10^−3M in 50% (v/v) DMSO. These were diluted to give; 10^−4M in 5% (v/v) DMSO and 10^−5M in 0.5% (v/v) DMSO. In cases of poor solubility the 10^−3M stock was made up in higher concentrations of DMSO. Solvent ‘blank’ solutions were prepared containing 50%, 5% and 0.5% (v/v) DMSO (or as appropriate). A cumulative dose-response assay was carried out in the range 5×10^−8M to 10^−5M. A second cumulative dose-response assay was carried out using DMSO ‘blank’ solutions only.
as §5

mouse ear oedema = experiment: Mouse ear oedema model (arachidonic acid induced); format: in vivo, Laca mice; conditions: 300 μg per ear topically 30 min prior to 400 μg arachidonic acid; 1 hour after arachidonic acid; n=4
Method: as §1
The mouse ear oedema model was performed using Laca mice (25-35 g), of either sex. The animals were sedated with fentanyl/fluanisone (Hypnorm, Janssen). One ear was treated by the topical application of one of a range of test compounds, indomethacin or dexamethasone (all at 300 μg ear in acetone) drug. After 30 min, oedema was induced by the topical application of arachidonic acid (10 μl at […] in acetone). The thickness of each ear was measured, both before and 60 min after the induction of oedema, using a micrometer screw gauge. Ear oedema was calculated by comparing the ear width before and after induction of oedema and expressed as percentage normal.
Responses of the mouse ear to single doses of a range of compounds compared to the response to indomethacin and dexamethasone, each at a dose of 300 μg per ear administered topically 30 min prior to administration of 400 μg of arachidonic acid. Values are expressed as the percentage increase in ear thickness 1 hour after administration of arachidonic acid (all n=4, solvent controls (n=8)).

[1] = 3 × 10^−6 M, guinea pig ileum, DMSO effect subtracted
[2] = 10^−5 M, guinea pig ileum, DMSO effect subtracted

Structure (SMILES) | inhibition at 3 µM (ileum; [1]) | inhibition at 10 µM (ileum; [2]) | inhibition at 20 µM (mast cells) | inhibition at 3 µM (trachea; 3 × 10^−6 M) | inhibition at 10 µM (trachea; 10^−5 M) | percentage increase in ear thickness (Mean %) (mouse ear oedema) | other results
CC(=O)N(C1CCc2ccccc21)C1CC(=O)c2ccccc21 (stereo not drawn) [Compound 5C9, N-1-Indanyl-N-3-indan-1-onylethanamide] | 9.06% | 18.3% | 14.3% | 2.64% | 2.38% | – | –
C[C@@H]1C[C@H]2[C@@H]3CCC4=CC(=O)C=C[C@]4(C)[C@@]3(F)[C@@H](O)C[C@]2(C)[C@@]1(O)C(=O)CO [Dexamethasone, reference compound] | – | – | – | – | – | 37.9% | –
CN(C1Cc2ccccc2C1)C1CC(=O)c2ccccc21 (stereo not drawn) [Compound 6C6, 3-(N-methyl-N-2-indanylamino)-indan-1-one] | 12.6% | 22.9% | 68% | – | – | 73.0% | inhibition at 0.3 µM (ileum; 3 × 10^−7 M, guinea pig ileum, DMSO effect subtracted): 4.64%; inhibition at 0.03 µM (ileum; 3 × 10^−8 M, guinea pig ileum, DMSO effect subtracted): 0.15%; inhibition at 1 µM (ileum; 10^−6 M, guinea pig ileum, DMSO effect subtracted): 9.01%; inhibition at 0.1 µM (ileum; 10^−7 M, guinea pig ileum, DMSO effect subtracted): 2.75%
C=CCN(C1CC(=O)c2ccccc21)[C@H]1CCc2ccccc21 (stereo partly drawn) [5C6 BS] | – | – | – | – | – | – | Percentage Inhibition of CaCl2 Induced Contractions (ileum; [1]): 13.66%; Percentage Inhibition of CaCl2 Induced Contractions (ileum; [2]): 31.47%; Percentage Inhibition of Histamine Release (mast cells): 80.29%; Percentage Inhibition of Spontaneous Tone (trachea; 3 × 10^−6 M): 2.03%; Percentage Inhibition of Spontaneous Tone (trachea; 10^−5 M): 4.09%
C=CCN(C1CCc2ccccc21)C1CC(=O)c2ccccc21 (stereo not drawn) [Compound 5C6, 3-(N-prop-2-enyl-N-1-indanylamino)-indan-1-one] | – | – | – | – | – | 52.0% | inhibition at 0.03 µM (ileum): -1%; inhibition at 0.1 µM (ileum): 0.02%; inhibition at 0.3 µM (ileum): 0.36%; inhibition at 1 µM (ileum): 1.31%; inhibition at 3 µM (ileum): 8.84%; inhibition at 10 µM (ileum): 20.9%; Percentage Inhibition of Histamine Release (mast cells): 77.77%
C=CCN(C1CC(=O)c2ccccc21)[C@H]1CCc2ccccc21 (stereo partly drawn) [5C6 TS] | – | 19.4% | 75.2% | 1.63% | 2.71% | – | Percentage Inhibition of CaCl2 Induced Contractions (ileum; [1]): 5.29%
C=CCN(C1CCc2ccccc21)C1CC(=O)c2ccccc21 (stereo not drawn) [5C6 TR] | – | – | 80% | 1.5% | 4.97% | – | –
C=CCN(C1Cc2ccccc2C1)C1CC(=O)c2ccccc21 (stereo not drawn) [Compound 6C7, 3-(N-prop-2-enyl-N-2-indanylamino)-indan-1-one] | – | – | 89.5% | – | – | 71.5% | inhibition at 0.03 µM (ileum): 1.16%; inhibition at 0.1 µM (ileum): 3.15%; inhibition at 0.3 µM (ileum): 4.52%; inhibition at 1 µM (ileum): 5.36%; inhibition at 3 µM (ileum): 10.7%; inhibition at 10 µM (ileum): 21.8%
CC(=O)N(C1Cc2ccccc2C1)C1CC(=O)c2ccccc21 (stereo not drawn) [Compound 6C11, N-2-Indanyl-N-3-indan-1-onylethanamide] | 8% | 12.5% | 4.26% | – | – | 26.0% | –
COc1ccc2c(c1)c(CC(=O)O)c(C)n2C(=O)c1ccc(Cl)cc1 [Indomethacin, reference compound] | – | – | – | – | – | 39.6% | –
